From patent US20240246934A1, “QUINAZOLINE-BASED COMPOUND, COMPOSITION, AND APPLICATION OF QUINAZOLINE-BASED COMPOUND” (BEIJING SCITECH-MQ PHARMACEUTICALS LIMITED, priority 2021, published 2024)
Where two headings read alike, the source gives them in different places.

Key:
[1] = Pharmacokinetics in SD rats, single intravenous injection and oral administration; format: in vivo, SD rat; details: for AUC(0-inf) / AUC(0-t) / Vd / half-life / bioavailability / Cmax / Tmax: SD, rat, whole blood; for bioavailability: PO 10 mg/kg vs IV 3 mg/kg, read-out: F % (bioavailability)
Method: In this assay, the pharmacokinetic characteristics of the compounds of the present application were assayed after administration of some of the compounds of the present application to SD rats by single oral administration and intravenous injection. 1. […] The mixture was stirred, vortexed and/or sonicated. Once a solution was obtained, the vehicle was gradually added to a final volume to reach the target concentration. The solution was vortexed, and sonicated to obtain a homogeneous solution. The solution was filtered through a 0.22 μm PVDF membrane. 2. […] The mixture was stirred, vortexed and/or sonicated. Once a solution was obtained, the vehicle was gradually added to a final volume to reach the target concentration. The solution was vortexed, and sonicated to obtain a homogeneous solution. […] Meanwhile, the IV group was not fasted and the PO group was fasted overnight (>12 hrs) and given food 2 hrs after drug administration. All animals had free access to water. The dosing regimen and pharmacokinetic sampling regimen are given in Table 6 and Table 7 below, respectively. […] Rats were administered according to the above regimen, and blood and brain tissue samples were collected and processed at predetermined time points (collection and processing were performed according to conventional methods in the art). […] The supernatant was diluted 2-fold with ultra-pure water, and the samples were analyzed by LC/MS. Pharmacokinetic parameters was calculated using WinNonlin software. The following pharmacokinetic parameters was calculated from the plasma drug concentration-time data: CL (clearance); Vd (apparent volume of distribution); T1/2 (elimination half-life time); Cmax (peak concentration); Tmax (time to peak); AUC (area under plasma drug concentration-time curve); MRT (mean retention time); F % (bioavailability).

[2] = Brain tissue and whole blood concentration in SD rats after oral administration; format: in vivo; details: rat, PO 10 mg/kg, 2 h after administration
Method: In this assay, the pharmacokinetic characteristics of the compounds of the present application were assayed after administration of some of the compounds of the present application to SD rats by single oral administration and intravenous injection.
2. […] The mixture was stirred, vortexed and/or sonicated. Once a solution was obtained, the vehicle was gradually added to a final volume to reach the target concentration. The solution was vortexed, and sonicated to obtain a homogeneous solution.
Meanwhile, the IV group was not fasted and the PO group was fasted overnight (>12 hrs) and given food 2 hrs after drug administration. All animals had free access to water. The dosing regimen and pharmacokinetic sampling regimen are given in Table 6 and Table 7 below, respectively.
Rats were administered according to the above regimen, and blood and brain tissue samples were collected and processed at predetermined time points (collection and processing were performed according to conventional methods in the art).
The supernatant was diluted 2-fold with ultra-pure water, and the samples were analyzed by LC/MS.
Brain tissues were weighed and homogenized by adding 4-fold homogenizing solution (acetonitrile/water=1/1 v/v). […] The supernatant was diluted 2-fold with ultra-pure water, and the samples were analyzed by LC/MS.

HER2 kinase = biological target: T1, HER2 kinase (Homo sapiens, UniProt P04626); assay: HER2 kinase assay (ULight/PT66 TR-FRET); format: biochemical
T1 construct: purchased Carna Biosciences 08-016
Method: (§1) Preparation of compound solution: The assay compound was dissolved in DMSO to form a 10 mM stock solution. Prior to use, the compound was diluted to 0.25 mM in DMSO (100 times the final concentration of the diluent) and then subjected to a 3-fold concentration gradient dilution to obtain a total of 11 concentrations. The solution was diluted with buffer to a diluent with 4× the final concentration when the compound was added.
(§2) HER2 kinase assay: buffer was prepared, and 40 nM 4×Her2 kinase solution, 40 μM 4×ATP solution, and 400 nM 4×ULight™-labeled Ploy GT Peptide substrate solution were prepared using the buffer. After the preparation was completed, the enzyme was mixed with different concentrations of compounds pre-prepared by dilution, and the mixture was left to stand at room temperature for 5 min. Each concentration was performed in duplicate. The corresponding substrate and ATP were added and the mixture was reacted at room temperature for 120 minutes (with negative and positive controls). After completion of the reaction, PT66 detection antibody was added. The mixture was incubated at room temperature for 60 minutes, and then detected by Envision.
(§3) Compound concentrations and corresponding inhibition rates were input into GraphPad Prism for processing to calculate IC50 values.

[3] = tested on: Ba/F3 ERBB2 A775_G776insYVMA; assay: Efficacy in nude mouse tumor-bearing model of Ba/F3 ERBB2 A775_G776insYVMA; format: in vivo, BALB/c nude mice; details: 30 mg/kg
Method: In this assay, some compounds of the application were orally administered to a nude mouse tumor-bearing model of Ba/F3 ERBB2 A775_G776insYVMA to study the effect of the compounds of the application on tumor growth.
Preparation of the assay compound: an appropriate weight of the compound to be assayed was weighed, and completely dissolved in an appropriate volume of vehicle (DMSO). The mixture was vortexed or sonicated. Then an appropriate amount of Solutol was added and mixed well. Finally, sterilized drinking water was added and the mixture was mixed by stirring or vortexing to obtain a homogeneous solution or suspension.
Method: All the assays were authorized and agreed by the Animal Welfare Committee. Ba/F3 ERBB2 A775_G776insYVMA in a logarithmic growth period was inoculated subcutaneously into the right back of immunodeficient nude mice (BALB/c nude, female, 6-7 weeks of age, body weight 18±2 g) with 4×10^6 cells/rat. After the tumor grew to 150-200 mm^3, the animals were randomly divided into a treatment group and a control group. For the treatment group, a solution of each assay compound was given, and for the control group, a vehicle solution without the assay compound was given. Both of the treatment group and the control group were administered once a day for about 2 weeks. The dose of each assay article was 30 mg/kg (in terms of effective compound concentration), and the assay compounds were all prepared freshly for use. During the assay, the diameter of loaded tumors was measured twice a week, and the mice were weighed at the same time. The tumor volume (TV) was calculated by the formula: TV=½×a×b^2, where a and b denote length and width, respectively. Relative tumor volume (RTV) was calculated based on the measured results by the formula: RTV=Vt/V0, where V0 is the tumor volume measured at grouping and administration and Vt is the tumor volume at each measurement. The evaluation index of antitumor activity was the relative tumor proliferation rate T/C (%) calculated by the formula: T/C (%)=(TRTV/CRTV)×100%, TRTV: RTV of the administration group; CRTV: RTV of the control group. T and C denote the average tumor volume at a certain time point in the administration group and the control group, respectively.

[4] = biological target: Ba/F3 HER2 A775_G776insYVMA cells (Homo sapiens, UniProt P04626, DUP772-775, cells depend on it); assay: Inhibition of cell proliferation, CTG method, Ba/F3 HER2 A775_G776insYVMA; format: cell-based; details: 72 hours, read-out: Ba/F3 HER2 A775-G776insYVMA IC50
Source text: The present application examined the in vitro anti-proliferative activity of the compounds of the present disclosure against in vitro cultured BT474, NCI-N87, Ba/F3-EGFR-VIII and Ba/F3 HER2 A775_G776insYVMA and Ba/F3 EGFR D770_N771insSVD cell lines by CTG method.
Cell lines: BT474 (from the cell bank of Chinese Academy of Sciences), NCI-N87 (from ATCC), Ba/F3-EGFR-VIII, Ba/F3 HER2 A775_G776insYVMA and Ba/F3 EGFR D770_N771insSVD (all from KYinno Biotechnology (Beijing) Co., Ltd.); all of the above cells were cultured with RPMI1640 medium containing 10% fetal bovine serum, 100 U/mL penicillin, and 100 μg/mL streptomycin in the culture process.
1. The assay compound was dissolved with DMSO to form a stock solution and a gradient dilution was performed, followed by dilution with the corresponding medium to obtain a solution with 5-fold working concentration.
2. Cells in logarithmic growth phase were adjusted to specific cell densities by dilution with culture medium, and 80 μL of cell suspension was added to a 96-well plate, such that plating densities of cells of BT474, NCI-N87, Ba/F3-EGFR-VIII, Ba/F3 HER2 A775_G776insYVMA and Ba/F3 EGFR D770_N771insSVD were all 3000 cells/well. The cells of Ba/F3-EGFR-VIII, Ba/F3 HER2 A775_G776insYVMA and Ba/F3 EGFR D770_N771insSVD were used directly in the next step (treatment with compound), whereas the BT474 and NCI-N87 needed to be cultured overnight in a 37° C., 5% carbon dioxide gas incubator to adhere to the wall, and then treated with compounds.
3. […] The highest concentration of the assayed compound was 10 μM, 4-fold serial dilution, a total of 9 concentrations, and duplicate wells. A control group without compound was also set up.
4. The cells were cultured for another 72 hours, and then cell viability was detected by CTG assay kit. Signal values were read with a multifunctional plate reader (Perkin Elmer). GraphPad Prism software was used to create a dose-response curve and IC50 was calculated.

EGFR^WT kinase = EGFR^WT kinase (Homo sapiens, UniProt P00533); assay: EGFR^WT kinase assay (ULight/PT66 TR-FRET); format: biochemical
Method: as §1
as §2, with “EGFR^WT kinase assay:” for “HER2 kinase assay:”, “prepared, and 3.48 nM 4×EGFR” for “prepared, and 40 nM 4×Her2”, “3.48 nM 4×EGFR kinase solution,” for “40 nM 4×Her2 kinase solution,”, “kinase solution, 600 μM 4×ATP” for “kinase solution, 40 μM 4×ATP”, “nM 4×ULight™-labeled JAK-1 (Try1023) Peptide substrate” for “nM 4×ULight™-labeled Ploy GT Peptide substrate”
as §3

[5] = NA: Exposure was too low to be counted
[6] = PO 10 mg/kg, NA: Exposure was too low to be counted

Chain of EGFR^WT kinase (P00533 25-1210): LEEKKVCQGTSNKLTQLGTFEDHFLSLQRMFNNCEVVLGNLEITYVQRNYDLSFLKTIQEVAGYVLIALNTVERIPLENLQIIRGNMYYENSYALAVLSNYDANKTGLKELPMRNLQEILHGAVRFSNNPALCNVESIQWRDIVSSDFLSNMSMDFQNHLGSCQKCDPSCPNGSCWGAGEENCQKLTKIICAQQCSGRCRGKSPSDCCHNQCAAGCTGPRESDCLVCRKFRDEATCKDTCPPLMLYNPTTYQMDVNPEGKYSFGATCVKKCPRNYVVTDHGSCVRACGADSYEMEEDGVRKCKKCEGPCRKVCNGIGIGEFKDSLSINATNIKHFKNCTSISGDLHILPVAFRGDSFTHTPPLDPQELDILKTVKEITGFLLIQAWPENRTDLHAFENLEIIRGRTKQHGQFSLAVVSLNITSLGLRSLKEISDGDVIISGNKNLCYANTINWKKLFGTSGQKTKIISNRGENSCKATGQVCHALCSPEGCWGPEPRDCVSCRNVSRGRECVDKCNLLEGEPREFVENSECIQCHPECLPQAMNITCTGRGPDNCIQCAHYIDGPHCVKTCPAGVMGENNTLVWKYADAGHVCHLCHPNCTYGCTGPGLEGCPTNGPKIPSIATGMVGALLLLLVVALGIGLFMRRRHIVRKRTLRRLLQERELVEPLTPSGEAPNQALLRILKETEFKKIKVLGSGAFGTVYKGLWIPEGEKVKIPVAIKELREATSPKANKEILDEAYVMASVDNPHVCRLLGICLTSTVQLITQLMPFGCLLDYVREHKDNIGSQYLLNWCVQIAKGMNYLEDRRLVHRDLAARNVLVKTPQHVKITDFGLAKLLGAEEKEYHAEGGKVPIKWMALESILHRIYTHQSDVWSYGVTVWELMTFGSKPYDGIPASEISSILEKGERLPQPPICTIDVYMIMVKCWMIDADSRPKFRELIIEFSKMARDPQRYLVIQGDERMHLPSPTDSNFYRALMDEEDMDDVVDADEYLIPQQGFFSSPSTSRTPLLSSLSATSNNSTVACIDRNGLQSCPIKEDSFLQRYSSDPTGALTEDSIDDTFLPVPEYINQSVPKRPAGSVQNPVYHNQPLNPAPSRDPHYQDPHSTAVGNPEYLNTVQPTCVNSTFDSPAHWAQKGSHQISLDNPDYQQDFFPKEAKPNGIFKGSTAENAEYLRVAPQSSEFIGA
T1 sequence (P04626 23-1255): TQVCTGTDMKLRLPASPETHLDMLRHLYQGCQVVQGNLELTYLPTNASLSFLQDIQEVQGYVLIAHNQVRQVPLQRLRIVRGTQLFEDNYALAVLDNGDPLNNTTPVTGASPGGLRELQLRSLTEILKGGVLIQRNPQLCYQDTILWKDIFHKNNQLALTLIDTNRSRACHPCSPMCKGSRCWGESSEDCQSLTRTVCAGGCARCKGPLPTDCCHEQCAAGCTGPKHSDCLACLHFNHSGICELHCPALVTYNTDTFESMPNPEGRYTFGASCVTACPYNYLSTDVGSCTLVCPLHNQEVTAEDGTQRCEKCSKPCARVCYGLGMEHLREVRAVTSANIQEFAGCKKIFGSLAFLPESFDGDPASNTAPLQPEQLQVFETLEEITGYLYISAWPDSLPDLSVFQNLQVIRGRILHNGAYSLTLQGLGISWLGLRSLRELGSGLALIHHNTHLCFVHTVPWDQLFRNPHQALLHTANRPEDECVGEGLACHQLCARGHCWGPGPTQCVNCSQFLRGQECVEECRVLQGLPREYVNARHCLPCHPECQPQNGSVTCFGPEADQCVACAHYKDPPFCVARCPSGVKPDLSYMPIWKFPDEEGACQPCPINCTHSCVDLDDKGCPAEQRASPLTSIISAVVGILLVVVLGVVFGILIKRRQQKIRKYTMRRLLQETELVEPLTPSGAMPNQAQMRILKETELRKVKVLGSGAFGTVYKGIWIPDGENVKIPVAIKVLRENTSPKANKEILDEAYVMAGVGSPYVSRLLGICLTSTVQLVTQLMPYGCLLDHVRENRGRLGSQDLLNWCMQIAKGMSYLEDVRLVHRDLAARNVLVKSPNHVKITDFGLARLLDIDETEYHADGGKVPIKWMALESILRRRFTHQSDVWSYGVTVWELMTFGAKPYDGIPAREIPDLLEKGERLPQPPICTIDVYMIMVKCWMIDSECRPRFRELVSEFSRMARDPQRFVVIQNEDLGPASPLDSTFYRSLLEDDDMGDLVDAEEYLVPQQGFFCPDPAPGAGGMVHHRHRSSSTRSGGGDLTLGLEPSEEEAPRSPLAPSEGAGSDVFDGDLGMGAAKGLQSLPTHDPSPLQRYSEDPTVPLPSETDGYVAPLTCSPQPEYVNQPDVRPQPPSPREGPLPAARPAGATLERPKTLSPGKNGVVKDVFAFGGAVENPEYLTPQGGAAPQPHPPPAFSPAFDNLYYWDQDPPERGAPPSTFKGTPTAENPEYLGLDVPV
Chain of Ba/F3 HER2 A775_G776insYVMA cells (P04626 with tags, fused parts or gaps DUP772-775): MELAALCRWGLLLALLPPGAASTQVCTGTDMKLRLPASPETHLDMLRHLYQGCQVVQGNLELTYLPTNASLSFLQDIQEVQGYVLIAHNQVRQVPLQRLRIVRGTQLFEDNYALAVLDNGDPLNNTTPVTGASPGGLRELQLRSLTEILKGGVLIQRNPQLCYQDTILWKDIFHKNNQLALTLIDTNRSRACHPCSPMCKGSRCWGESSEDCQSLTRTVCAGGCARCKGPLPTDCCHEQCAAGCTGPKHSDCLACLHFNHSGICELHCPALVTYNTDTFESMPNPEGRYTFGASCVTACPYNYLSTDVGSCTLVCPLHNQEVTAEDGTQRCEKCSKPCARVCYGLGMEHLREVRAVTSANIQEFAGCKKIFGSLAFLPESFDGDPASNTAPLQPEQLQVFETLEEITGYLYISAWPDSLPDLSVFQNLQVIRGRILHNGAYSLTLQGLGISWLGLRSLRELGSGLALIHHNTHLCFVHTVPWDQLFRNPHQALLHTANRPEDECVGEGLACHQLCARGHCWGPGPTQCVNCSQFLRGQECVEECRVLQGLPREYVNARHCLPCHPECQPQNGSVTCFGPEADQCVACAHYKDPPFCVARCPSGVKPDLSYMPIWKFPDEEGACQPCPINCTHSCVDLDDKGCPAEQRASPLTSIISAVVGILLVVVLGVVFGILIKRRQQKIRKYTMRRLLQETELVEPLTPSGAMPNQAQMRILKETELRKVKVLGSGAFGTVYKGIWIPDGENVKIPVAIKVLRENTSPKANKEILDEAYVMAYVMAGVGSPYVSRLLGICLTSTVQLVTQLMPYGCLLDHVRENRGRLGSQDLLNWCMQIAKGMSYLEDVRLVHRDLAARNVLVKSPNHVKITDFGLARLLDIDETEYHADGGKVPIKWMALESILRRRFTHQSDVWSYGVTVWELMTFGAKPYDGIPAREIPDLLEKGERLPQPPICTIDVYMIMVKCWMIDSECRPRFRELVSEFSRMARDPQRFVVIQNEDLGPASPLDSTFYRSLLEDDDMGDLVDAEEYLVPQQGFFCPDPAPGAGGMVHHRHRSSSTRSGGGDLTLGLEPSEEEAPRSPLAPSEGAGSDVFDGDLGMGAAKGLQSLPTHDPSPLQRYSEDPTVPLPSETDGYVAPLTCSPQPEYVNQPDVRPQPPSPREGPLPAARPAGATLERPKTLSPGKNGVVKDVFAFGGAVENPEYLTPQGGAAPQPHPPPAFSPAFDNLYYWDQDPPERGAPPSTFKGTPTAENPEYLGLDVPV

Row | SMILES | Cl_obs ([1]; IV 3 mg/kg) | AUC(0-inf) ([1]; IV 3 mg/kg) | AUC(0-t) ([1]; IV 3 mg/kg) | Vd ([1]; IV 3 mg/kg) | half-life ([1]; IV 3 mg/kg) | bioavailability [1, 5] | AUC(0-inf) [1, 6] | AUC(0-t) [1, 6] | Cmax [1, 6] | Tmax [1, 6] | half-life [1, 6] | IC50 (HER2 kinase) | GI50 [4] | IC50 (EGFR^WT kinase) | also measured
1 | CN1CCC[C@H]1/C=C/C(=O)Nc1ccc2ncnc(Nc3ccc(OCc4ccccn4)c(Cl)c3)c2c1 [Control compound 2, reference compound] | 84.3 ± 5.1 mL/min/kg | 595 ± 37 ng·h/mL | 565 ± 40 ng·h/mL | 47.5 ± 7.5 L/kg | 6.5 ± 0.78 h | 0.992% | 23.8 ng·h/mL | 18.7 ng·h/mL | 6.72 ng/mL | 0.25 h | 2.39 h | – | – | – | oral absorption (in words) ([1]; administrated orally): hardly absorbed; concentration at 2 h ([2]; in vivo, whole blood, read-out: Blood drug concentration): 1.14 ng/mL
2 | CN1CCC[C@@H]1/C=C/C(=O)Nc1ccc2ncnc(Nc3ccc(OCc4ccccn4)c(Cl)c3)c2c1OCC(F)F [Example 11, (R,E)-N-(4-((3-chloro-4-(pyridin-2-ylmethoxy)phenyl)amino)-5-(2,2-difluoroethoxy)quinazolin-6-yl)-3-(1-methylpyrrolidin-2-yl)acrylamide] | – | – | – | – | – | – | – | – | – | – | – | < 10 nM | 1 to 5 nM | < 10 nM | T/C (%) ([3]; QD×15, PO, day 15): 5.71%
3 | CCCOc1c(NC(=O)/C=C/[C@H]2CCCN2C)ccc2ncnc(Nc3ccc(OCc4ccccn4)c(Cl)c3)c12 [Example 13, (R,E)-N-(4-((3-chloro-4-(pyridin-2-ylmethoxy)phenyl)amino)-5-propoxyquinazolin-6-yl)-3-(1-methylpyrrolidin-2-yl)acrylamide] | 52.3 ± 5.7 mL/min/kg | 964 ± 104 ng·h/mL | 953 ± 105 ng·h/mL | 18.7 ± 2.9 L/kg | 4.12 ± 0.22 h | 23.3 ± 7.4% | 750 ± 238 ng·h/mL | 719 ± 233 ng·h/mL | 53.7 ± 12.4 ng/mL | 2 h | 5.42 ± 0.34 h | < 10 nM | 1 to 5 nM | < 10 nM | concentration at 2 h ([2]; whole blood, read-out: Blood drug concentration): 273 ng/mL; Kp at 2 h ([2]; brain / whole blood, read-out: Brain tissue/blood ratio): 0.465; concentration at 2 h ([2]; brain, NA: Exposure was too low to be counted, read-out: Brain tissue concentration): 127 ng/g
4 | COc1c(NC(=O)/C=C/[C@H]2CCCN2C(C)C)ccc2ncnc(Nc3ccc(OCc4ccccn4)c(Cl)c3)c12 [Example 24, (R,E)-N-(4-((3-chloro-4-(pyridin-2-ylmethoxy)phenyl)amino)-5-methoxyquinazolin-6-yl)-3-(1-isopropylpyrrolidin-2-yl)acrylamide] | 32.2 ± 0.5 mL/min/kg | 1550 ± 23 ng·h/mL | 1510 ± 26 ng·h/mL | 14 ± 1.3 L/kg | 5.01 ± 0.45 h | 25 ± 11.2% | 1470 ± 655 ng·h/mL | 1260 ± 561 ng·h/mL | 86.3 ± 32.7 ng/mL | 5.33 ± 2.89 h | 7.81 ± 3.71 h | < 10 nM | 1 to 5 nM | 100 to 1000 nM | T/C (%) ([3]; QD×14, PO, day 14): 12.4%
5 | [2H]C([2H])([2H])Oc1c(NC(=O)/C=C/[C@H]2CCCN2C)ccc2ncnc(Nc3ccc(OCc4ccccn4)c(Cl)c3)c12 [Example 33, (R,E)-N-(4-((3-chloro-4-(pyridin-2-ylmethoxy)phenyl)amino)-5-(methoxy-d3)quinazolin-6-yl)-3-(1-methylpyrrolidin-2-yl)acrylamide] | – | – | – | – | – | – | – | – | – | – | – | < 10 nM | < 1 nM | < 10 nM | T/C (%) ([3]; QD×11, PO, day 11): 12.4%
